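A five-concentration, 48-hour dose response in 96-well plates underlies each endpoint, interpolated linearly between surrounding concentrations. GI50: concentration for 50% inhibition of growth.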 The source made the active and inactive calls. Rule as the data show it: active = GI50 up to about 1.1 µM and inactive = higher.
How the values were obtained:
Assay in all cases: NCI anticancer screen, dose series, 48 h
[1] = tested on: DU-145
[2] = tested on: KM12
[3] = tested on: MDA-MB-231
[4] = tested on: OVCAR-5
[5] = tested on: SK-OV-3
[6] = tested on: CCRF-CEM
[7] = tested on: SNB-19
[8] = tested on: MCF7
[9] = tested on: HOP-92
[10] = tested on: SK-MEL-5
[11] = tested on: SF-539
[12] = tested on: NCI/ADR-RES
[13] = tested on: M14
[14] = tested on: CAKI-1
[15] = tested on: MDA-MB-435
[16] = tested on: BT-549
[17] = tested on: OVCAR-8
[18] = tested on: HCT-15
[19] = tested on: HCC 2998
[20] = tested on: SW-620
[21] = tested on: SK-MEL-28
[22] = tested on: UO-31
[23] = tested on: UACC-257
[24] = tested on: HL-60
[25] = tested on: K562
[26] = tested on: TK-10
[27] = tested on: U-251
[28] = tested on: RPMI-8226
[29] = tested on: Malme-3M
[30] = tested on: A549
[31] = tested on: HOP-62
[32] = tested on: NCI-H23
[33] = tested on: PC-3
[34] = tested on: SNB-75
[35] = tested on: 786-0
[36] = tested on: RXF 393
[37] = tested on: IGROV-1
[38] = tested on: EKVX
[39] = tested on: UACC-62
[40] = tested on: A498
[41] = tested on: SN12C
[42] = tested on: Hs-578T
[43] = tested on: MOLT-4
[44] = tested on: NCI-H460
[45] = tested on: LOX IMVI
[46] = tested on: SF-268
[47] = tested on: T47D
[48] = tested on: COLO 205
[49] = tested on: NCI-H226
[50] = tested on: SF-295
[51] = tested on: ACHN
[52] = tested on: MDA-N
[53] = tested on: NCI-H522
[54] = tested on: HT-29
[55] = tested on: OVCAR-3
[56] = tested on: HCT-116
[57] = tested on: OVCAR-4
[58] = tested on: SK-MEL-2

Measured: GI50

CC(=O)OC1CC[C@@]2(C)C(=CC[C@@H]3[C@@H]2CC[C@]2(C)Nc4c(cnn4-c4ccc(F)cc4)C[C@@H]32)C1 (stereo partly drawn)
20 µM: [18]
inactive: [1] 45.5 µM | [2] 16.2 µM | [3] 33 µM | [4] > 87.5 µM | [5] 32.1 µM | [6] 6.46 µM | [7] 30.9 µM | [8] > 34.8 µM | [9] 53.5 µM | [10] 25.9 µM | [11] 5.33 µM | [12] 60.1 µM | [13] 30.5 µM | [14] 6.1 µM | [15] 39.4 µM | [16] 17.3 µM | [17] 40 µM | [19] > 100 µM | [20] 22.9 µM | [21] 15.1 µM | [22] 12.6 µM | [23] 45.1 µM | [24] 2.93 µM | [25] 21.4 µM | [26] 49 µM | [27] 7.43 µM | [28] 3.24 µM | [29] 9.35 µM | [30] 24.3 µM | [31] 5.5 µM | [32] 22.1 µM | [33] 23.1 µM | [34] 16.8 µM | [35] 3.26 µM | [36] 2.64 µM | [37] 42.2 µM | [38] 33.5 µM | [39] 15.8 µM | [40] 19.8 µM | [41] > 100 µM | [42] 14.1 µM | [43] 2.02 µM | [44] 12.9 µM | [45] 7.85 µM | [46] 39.4 µM | [47] 14.9 µM | [48] 5.45 µM | [49] 59.7 µM | [50] 4.53 µM | [51] 35.3 µM | [52] 39.2 µM | [53] 68.4 µM | [54] 13.2 µM | [55] > 39.4 µM | [56] 7.4 µM | [57] > 53.5 µM | [58] 17.9 µM

Source: ChEMBL document CHEMBL1201862, “PubChem BioAssay data set” (2004)
